Tests used:
[1] = system: BCL-6, IRF-4, BLIMP-1, PAX5 and XBP-1; test: Transcription factor protein expression by laser scanning cytometry (iCyte), normal B cells; type: cell-based, human; conditions: Day 7, 20 nM
Experimental: Preparation Of Cytospin From Single Cell Suspension And Immunofluorescence Staining for iCyte: A cell suspension of not more than 0.5×10^6 cells/ml of 2% FBS-containing PBS was prepared. Up to 200 μl of this suspension was loaded in each cuvette and spinned at 800 rpm for 3 min. The cuvette and the paper were carefully detached without damaging the fresh cytospin and proceeded with either immediate fixation or drying. Unfixed cytospins were stored for max 2 days at room temperature. Cells on slides were fixed with increasing concentrations of EtOH and allowed to dry prior to staining. After blocking non-specific binding with normal serum (species same as secondary antibody), sections were incubated with the mixture of following monoclonal antibodies in a humidified chamber at cool room for overnight: (i) anti-human CD38 as plasmablast cell marker, and (ii) anti-BCL-6, IRF-4, BLIMP-1, PAX5 and XBP-1 for transcription factor proteins. After washings, slides were incubated for 1 hr at room temperature in dark with the mixture of secondary antibodies which were raised in different species (with two different fluorochromes, i.e., Alexa Fluor-488 and Alexa Fluor-633). The slides were then rinsed in PBS, counterstained with DAPI for 20 minutes at room temperature, coverslipped with anti-fade fluorescent mounting medium, and sealed with nail polish. The slides were stored in dark at 4° C. To exclude false positives produced by nonspecific binding of the secondary antibody, all of the tissues were treated in the same manner with buffer substituting for the primary antibody. The color of the antibody staining was observed and quantity was analyzed in the tissue sections using iCyte.

DBA/2 mice = test: Bleomycin-induced dermal fibrosis mouse model (prevention); type: in vivo; conditions: 30 mg/kg, PO, QD
Experimental: DBA/2 mice were used in this study. Eight animals were used per treatment group in the study. Mice were kept in the animal house under standard conditions with food and water ad libidum.
The vehicle, 0.5% carboxymethyl cellulose (CMC)/0.25% Tween 80, was prepared in distilled H2O and dissolved overnight on a magnetic stirrer (add 0.5 g CMC; Sigma #C9481) and 0.25 ml Tween 80 (Sigma #P8074) to 99.75 ml to make a total of 100 ml 0.5% CMC/0.25% Tween 80).
The compound was suspended, not dissolved, in this vehicle. The formulation was homogenized with a Teflon pestle and mortar (Potter-Elvehjem tissue grinder) using a motorized Eberbach tissue homogenizer. The daily drug stock concentration used in these studies was 3 mg/ml.
Bleomycin was obtained from the pharmacy of the University of Erlangen-Nuremberg and freshly prepared once a week. Skin fibrosis was induced in 6-week-old DBA mice by local intracutaneous injections of 100 μl of bleomycin dissolved in 0.9% NaCl, at a concentration of 0.5 mg/ml, every other day in defined areas of 1.5 cm^2 on the upper back.
The mouse model of bleomycin induced dermal fibrosis is widely used to evaluate anti-fibrotic therapeutics. In this model, a localized dermal fibrosis is induced by intradermal injections with bleomycin every other day for 3 weeks. This model resembles early, inflammatory stages of SSc. To evaluate potential effects on prevention of fibrosis, treatment was initiated simultaneously with the first bleomycin injection. […] Treatment consisted of administration of the vehicle (0.5% CMC/0.25% Tween 80). • Untreated bleomycin group: Intradermal injection of bleomycin for three weeks. […] Injection of Imatinib (50 mg/kg; IP, QD). […] See Akhmetshina A. et al., Arthritis Rheum 2009; 60(1):219-224.
Dermal thickness was determined by staining with hematoxylin and eosin and activated fibroblasts by using immunohistochemistry for alpha smooth muscle actin (α-SMA). The dermal thickness, as determined by the modified Rodnan Skin Score, is currently the most common primary outcome in human clinical trials for anti-fibrotic agents in SSc. […] Dermal thickness was analyzed with a Nikon Eclipse 80i microscope (Nikon, Badhoevedorp, The Netherlands) by measuring the maximal distance between the epidermal-dermal junction and the dermal-subcutaneous fat junction at 4 different skin sections in each mouse. […]
For quantification of myofibroblasts, skin sections were deparaffinized and incubated with 5% bovine serum albumin for 60 minutes. Cells positive for α-SMA were detected by incubation with monoclonal anti-α-SMA antibodies (clone 1A4; Sigma-Aldrich, Steinheim, Germany) for 2 hours at room temperature followed by incubation with 3% hydrogen peroxide for 10 minutes. […]

[2] = CD38+ plasmablast/plasma cells, listed as Compound I-S

## O=C1CC[C@H](N2Cc3c(OCc4ccc(CN5CCOCC5)cc4)cccc3C2=O)C(=O)N1 [Test compound, (S)-3-[4-(4-morphlin-4-ylmethylbenzyloxy)-1-oxo-1,3-dihydro-isoindo-2-yl]piperidine-2,6-dione]
[1]; CD38+ plasmablast/plasma cells
  BCL-6 expression: significantly increased
  BLIMP-1 expression: decreased
  IRF-4 expression: decreased
  PAX-5 expression: decreased
[1]; [2]
  BCL-6 expression: increased
  BLIMP-1 expression: reduced
  IRF-4 expression: reduced
[1]; both cell populations
  XBP-1 expression: no change
[1]; whole lymphocyte population
  BCL-6 expression: significantly increased
  BLIMP-1 expression: decreased
  IRF-4 expression: decreased
DBA/2 mice; 3 weeks, p<0.001
  prevention of dermal thickening: approximately 25±0.49%
DBA/2 mice; p<0.05
  reduction of number of α-SMA+ myofibroblasts: 24±0.09%

Source: patent US11524950B2, “Treatment of immune-related and inflammatory diseases” (Celgene Corporation, priority 2012, dated 2022)
